Type in all cases: functional
One assay relates to MDA-MB-231. The assay can be described thus: Cytotoxicity against human MDA-MB-231 cells after 72 hrs by sulforhodamine B method. The note with it: MDA-MB-231, 72 h. In general terms: In SRB staining, fixed cells bind dye roughly in proportion to their protein.
A further assay relates to HT-29. Put plainly: Cytotoxicity against human HT29 cells after 72 hrs by sulforhodamine B method. The conditions noted are these: HT-29, 72 h.
The next assay concerns A549. The assay can be described thus: Cytotoxicity against human A549 cells after 72 hrs by sulforhodamine B method. The note with it: A549, 72 h.

Each structure is given as a SMILES string.

The GI50 is the concentration giving 50% growth inhibition. Low readings indicate greater sensitivity of the cells, high ones lower sensitivity of the cells. Turning to `CO[C@@H]1[C@H](N)C[C@H]2O[C@]1(C)n1c3ccc(O)c(O)c3c3c4c(c5c6ccccc6n2c5c31)C(=O)NC4=O`, the concentration for 50% growth inhibition (GI50) with MDA-MB-231 was 32.1 nM; with HT-29 it was 90.3 nM; in the assay with A549, 17.5 nM.

`CN[C@@H]1C[C@H]2O[C@@](C)([C@@H]1OC)n1c3ccccc3c3c4c(c5c6ccccc6n2c5c31)C(=O)NC4` [STAUROSPORINE]: the GI50 in the assay with MDA-MB-231 turned out to be 7.1 nM; in the assay on HT-29 it was 10.9 nM; with A549 it was 2.4 nM.

As to `CN[C@@H]1C[C@H]2O[C@@](C)([C@@H]1OC)n1c3ccc(O)c(O)c3c3c4c(c5c6cc(O)ccc6n2c5c31)C(=O)NC4=O`, the values for the GI50 in the assay on MDA-MB-231, in the assay with HT-29 and in the assay with A549 were 28.4 nM, 68.1 nM and 26.6 nM, respectively.

The values above are taken from ChEMBL document CHEMBL1157400, “Cytotoxic staurosporines from the marine ascidian Cystodytes solitus” (2008).
